Laboratory results: the supplement of paper PMC8967900

Tests used:
Assay in all cases: selective drug sensitivity score (sDSS, relative to normal bone marrow) (sDSS (score)); higher = more potent and effective on the cell line relative to normal bone marrow cells
Conditions in all cases: 72 h
TMD5 = system: TMD5
KASUMI-9 = system: KASUMI-9
MOLT-16 = system: MOLT-16
ALL-PO = system: ALL-PO
MHH-CALL-4 = system: MHH-CALL-4
MN-60 = system: MN-60
COG-LL-355h = system: COG-LL-355h
HAL-01 = system: HAL-01
JURKAT = system: JURKAT
697 = system: 697
P30-OHKUBO = system: P30-OHKUBO
COG-LL-317 = system: COG-LL-317
SUP-B15 = system: SUP-B15
KOPN-8 = system: KOPN-8
LC4-1 = system: LC4-1
TANOUE = system: TANOUE
SEM cells = system: SEM cells
COG-LL-319h = system: COG-LL-319h
PEER = system: PEER
CCRF-HSB2 = system: CCRF-HSB2
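Also: ALL cell lines in 384-well plates, five doses spanning 10,000-fold, each plate scaled between vehicle and 100 µmol/L benzalkonium chloride controls, sDSS an adapted area-under-curve metric.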

Row | SMILES | selective drug sensitivity score (TMD5) | selective drug sensitivity score (KASUMI-9) | selective drug sensitivity score (MOLT-16) | selective drug sensitivity score (ALL-PO) | selective drug sensitivity score (MHH-CALL-4) | selective drug sensitivity score (MN-60) | selective drug sensitivity score (COG-LL-355h) | selective drug sensitivity score (HAL-01) | selective drug sensitivity score (JURKAT) | selective drug sensitivity score 697 | selective drug sensitivity score (P30-OHKUBO) | selective drug sensitivity score (COG-LL-317) | selective drug sensitivity score (SUP-B15) | selective drug sensitivity score (KOPN-8) | selective drug sensitivity score (LC4-1) | selective drug sensitivity score (TANOUE) | selective drug sensitivity score (SEM cells) | selective drug sensitivity score (COG-LL-319h) | selective drug sensitivity score (PEER) | selective drug sensitivity score (CCRF-HSB2)
1 | Cc1cccc(-c2[nH]c(CNc3ccccc3F)nc2-c2ccc3ncnn3c2)n1 [Vactosertib (TEW-7197)] (top concentration 2500 nM) | -0.5 | 1.4 | 10.7 | -0.5 | 7.2 | -0.1 | 1.2 | 0 | 0 | -0.5 | -0.4 | -0.3 | 9 | -0.5 | -0.1 | -0.5 | 4.5 | 7.2 | -0.5 | 5.1
2 | O=C(/C=C\n1cnc(-c2cc(C(F)(F)F)cc(C(F)(F)F)c2)n1)NNc1ccccn1 [Verdinexor] (top concentration 1000 nM) | 0.14 | 3.74 | 11.1 | 7.54 | 1.84 | 2.24 | 8.54 | 3.94 | 8.74 | 6.34 | 4.34 | 12.5 | 11.2 | 8.34 | 1.94 | -6.96 | 0.34 | 11.3 | 5.44 | 9.84
3 | CC[C@@H]1C(=O)N(C)c2cnc(Nc3ccc(C(=O)N[C@H]4CC[C@H](N5CCN(CC6CC6)CC5)CC4)cc3OC)nc2N1C(C)C [Volasertib] (top concentration 1000 nM) | 10.1 | 18.5 | 12.7 | 16.1 | 0.9 | 0.4 | 6.4 | 5.8 | 11.7 | 12.1 | 13.1 | 16.7 | 19.2 | 12.4 | 13.4 | -7 | 21.4 | 14.9 | 18.7 | 12.4
4 | O=C(CCCCCCC(=O)Nc1ccccc1)NO [Vorinostat] (top concentration 10000 nM) | -0.1 | 11.6 | 15.5 | 10.1 | 3.9 | 0.8 | 7.7 | 0.8 | 3.6 | 10.1 | 10 | 8.2 | 11.9 | 13.4 | 8.2 | -2.6 | 11.3 | 11.5 | 9.7 | 4.8
